Assays:
[1] = test system: SW620, HCT-116, Colo205, A549, Calu-6 or HL-60 tumour xenografts; settings: cited from earlier work
human Aurora A = biological target: T1, human Aurora A (Homo sapiens, UniProt O14965); experiment: Aurora A kinase assay (DELFIA enzyme inhibition); assay type: biochemical; settings: read-out: Aurora A IC50
T1 construct: Histidine tag (N); host or cells: Sf9 insect cells (baculovirus)
T1 sequence (O14965 1-403): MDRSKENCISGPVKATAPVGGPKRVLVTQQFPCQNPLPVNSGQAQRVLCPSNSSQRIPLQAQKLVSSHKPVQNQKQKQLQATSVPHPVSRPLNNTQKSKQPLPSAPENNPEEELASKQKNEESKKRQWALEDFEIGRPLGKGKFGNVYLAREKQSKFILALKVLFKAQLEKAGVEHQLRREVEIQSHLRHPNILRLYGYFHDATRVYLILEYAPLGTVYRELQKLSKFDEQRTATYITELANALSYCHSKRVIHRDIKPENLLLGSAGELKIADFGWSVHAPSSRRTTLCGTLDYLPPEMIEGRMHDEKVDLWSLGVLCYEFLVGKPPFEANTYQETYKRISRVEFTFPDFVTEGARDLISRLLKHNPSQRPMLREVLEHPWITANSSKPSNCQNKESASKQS
Summary of the method: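 DELFIA read-out (time-resolved Eu fluorescence, 620 nm emission) after Neutravidin capture of biotinylated peptide substrate and antibody detection. Reaction: Ni-agarose-purified Aurora A, 30 min at room temperature, stopped with 100 mM EDTA.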

human FLT3 = biological target: T2, human FLT3 (Homo sapiens, UniProt P36888); experiment: FLT3 kinase assay (DELFIA enzyme inhibition); assay type: biochemical
T2 construct: a construct expressing the human FLT3 (564-993) with an amino terminal GST tag; host or cells: Sf9 insect cells (baculovirus)
T2 sequence (P36888 564-993): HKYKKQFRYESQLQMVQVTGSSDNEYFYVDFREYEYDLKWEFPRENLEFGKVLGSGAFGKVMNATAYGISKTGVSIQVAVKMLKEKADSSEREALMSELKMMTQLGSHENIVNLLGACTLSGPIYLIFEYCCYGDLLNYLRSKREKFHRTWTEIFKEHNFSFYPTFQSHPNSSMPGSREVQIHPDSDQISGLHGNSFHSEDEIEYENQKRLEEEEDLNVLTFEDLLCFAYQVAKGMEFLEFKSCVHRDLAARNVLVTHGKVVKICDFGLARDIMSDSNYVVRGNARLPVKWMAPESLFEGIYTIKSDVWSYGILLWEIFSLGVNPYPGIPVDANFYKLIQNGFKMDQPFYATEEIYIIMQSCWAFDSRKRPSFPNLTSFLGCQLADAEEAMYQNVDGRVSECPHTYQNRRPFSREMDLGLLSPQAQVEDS
Summary of the method: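 GST-tagged human FLT3 (564-993), expressed in sf9 cells, phosphorylated a biotinylated Gastrin Precursor (Tyr 87)-derived peptide for 30 min at room temperature before EDTA stop. The captured peptide was detected by Eu-labelled anti-phosphotyrosine DELFIA time-resolved fluorescence. IC50 was derived from % inhibition curves.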

human FLT4 = biological target: T3, human FLT4 (Homo sapiens, UniProt P35916); experiment: FLT4 kinase assay (DELFIA enzyme inhibition); assay type: biochemical; settings: read-out: FLT4 IC50
T3 construct: a construct expressing the human FLT4 (789-1207) with an amino terminal GST tag; host or cells: Sf9 insect cells (baculovirus)
T3 sequence (P35916 789-1207): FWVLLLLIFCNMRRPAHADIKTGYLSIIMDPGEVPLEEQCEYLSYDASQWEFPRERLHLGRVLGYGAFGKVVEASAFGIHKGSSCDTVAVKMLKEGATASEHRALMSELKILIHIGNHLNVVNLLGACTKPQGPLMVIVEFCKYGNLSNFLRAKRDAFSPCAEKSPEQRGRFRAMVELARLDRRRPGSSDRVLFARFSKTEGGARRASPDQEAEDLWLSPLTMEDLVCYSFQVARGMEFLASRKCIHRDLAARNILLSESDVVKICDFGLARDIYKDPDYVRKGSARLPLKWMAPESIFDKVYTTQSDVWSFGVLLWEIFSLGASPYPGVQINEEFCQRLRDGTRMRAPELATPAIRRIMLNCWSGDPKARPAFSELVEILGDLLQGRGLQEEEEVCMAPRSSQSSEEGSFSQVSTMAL
Summary of the method: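 GST-tagged human FLT4 (789-1207) from Sf9 cells phosphorylates a biotinylated MET (Tyr1253)-derived peptide for 30 min at room temperature, stopped with EDTA. Phosphopeptide is captured on Neutravidin and detected with Eu-labelled anti-phosphotyrosine antibody by time-resolved fluorescence; IC50 from % inhibition curves.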

[2] = test system: A549 human lung carcinoma cells; experiment: Anti-proliferative activity, Alamar Blue assay, A549; assay type: cell-based; settings: A549, 72 h, read-out: cell growth IC50
Protocol: (§1) The anti-proliferative activities of compounds of the invention are determined by measuring the ability of the compounds to inhibition of cell growth in a number of cell lines. Inhibition of cell growth is measured using the Alamar Blue assay (Nociari et al., Journal of Immunological Methods (1998) 213, 157-167). The method is based on the ability of viable cells to reduce resazurin to its fluorescent product resorufin. For each proliferation assay cells are plated onto 96 well plates and allowed to recover for 16 hours prior to the addition of inhibitor compounds for a further 72 hours. At the end of the incubation period 10% (v/v) Alamar Blue is added and incubated for a further 6 hours prior to determination of fluorescent product at Excitation 535 nm and Emission 590 nm. In the case of the non-proliferating cell assay cells are maintained at confluence for 96 hour prior to the addition of inhibitor compounds for a further 72 hours. The number of viable cells is determined by Alamar Blue assay as before. All cell lines are obtained from ECACC (European Collection of cell Cultures).

HCT116 cells = experiment: Anti-proliferative activity, Alamar Blue assay, HCT116; assay type: cell-based; settings: Homo sapiens, HCT-116, 72 hours, read-out: cell proliferation IC50
Protocol: as §1

[3] = test system: treatment-refractory primary Acute Myelogenous Leukemia (AML) cells; settings: treatment-refractory cells from patients; cited from earlier work

SMILES | complete tumour regression (animals) ([1]; HL-60 xenograft) | inhibition of tumour growth ([1]; dosed over 48 h via sub-cutaneous mini-pump infusion, all xenograft models) | IC50 (human Aurora A) [µM] | IC50 (human FLT3) [µM] | IC50 (human FLT4) [µM] | IC50 [2] [µM] | IC50 (HCT116 cells) [µM] | killing of primary AML cells [3]
CCN(CCCOc1ccc2c(Nc3cc(CC(=O)Nc4cccc(F)c4)n[nH]3)ncnc2c1)CCOP(=O)(O)O [AZD1152] | 8 of 11 | 55% to 100 |  |  |  |  |  | 
NC(=O)c1nc(-c2c(F)cccc2F)oc1-c1ccc(N2CCNCC2)cc1 [Example G-3, 2-(2,6-difluorophenyl)-5-(4-(piperazin-1-yl)phenyl)oxazole-4-carboxamide] |  |  | < 10 | < 10 | < 10 | < 10 | < 10 | 
NC(=O)c1nc(-c2c(F)cccc2Cl)oc1-c1ccc(N2CCNCC2)cc1 [Example G-5, 2-(2-chloro-6-fluorophenyl)-5-(4-(piperazin-1-yl)phenyl)oxazole-4-carboxamide] |  |  | < 10 | < 10 | < 10 | < 10 | < 10 | 
NC(=O)c1nc(-c2cccc3[nH]ccc23)oc1-c1ccc(N2CCNCC2)cc1 [Example M-12, 2-(1H-indol-4-yl)-5-(4-(piperazin-1-yl)phenyl)oxazole-4-carboxamide] |  |  | < 10 | < 10 | < 10 | < 10 | < 10 | 
NC(=O)c1nc(-c2cccc3[nH]ncc23)oc1-c1ccc(N2CCNCC2)cc1 [Example M-17, 2-(1H-indazol-4-yl)-5-(4-(piperazin-1-yl)phenyl)oxazole-4-carboxamide] |  |  | < 10 | < 10 | < 10 | < 10 | < 10 | 
CS(=O)(=O)c1ccc(Nc2oc(-c3c(F)cccc3F)nc2C(N)=O)cc1 [Example Q-3, 2-(2,6-difluorophenyl)-5-(4-(methylsulfonyl)phenylamino)oxazole-4-carboxamide] |  |  | < 10 | < 10 | < 10 | < 10 | < 10 | 
NC(=O)c1nc(-c2c(F)cccc2F)oc1Nc1ccc(N2CCNCC2)cc1 [Example Q-11, 2-(2,6-difluorophenyl)-5-(4-(piperazin-1-yl)phenylamino)oxazole-4-carboxamide] |  |  | < 10 | < 10 | < 10 | < 10 | < 10 | 
CN1CCN(C(=O)c2ccc(Nc3oc(-c4c(F)cccc4F)nc3C(N)=O)cc2)CC1 [Example Q-14, 2-(2,6-difluorophenyl)-5-(4-(4-methylpiperazine-1-carbonyl)phenylamino) oxazole-4-carboxamide] |  |  | < 10 | < 10 | < 10 | < 10 | < 10 | 
NC(=O)c1nc(-c2c(F)cccc2F)oc1Nc1ccc(S(=O)(=O)N2CCCCC2)cc1 [Example Q-28, 2-(2,6-difluorophenyl)-5-(4-(piperidin-1-ylsulfonyl)phenylamino)oxazole-4-carboxamide] |  |  | < 100 | < 100 | < 10 | < 10 |  | 
NC(=O)c1nc(-c2c(F)cccc2Cl)oc1Nc1ccc(N2CCNCC2)cc1 [Example Q-36, 2-(2-chloro-6-fluorophenyl)-5-(4-(piperazin-1-yl)phenylamino)oxazole-4-carboxamide] |  |  | < 10 | < 10 | < 10 | < 10 | < 10 | 
CN1CCN(C(=O)c2ccc(Nc3oc(-c4c(F)cccc4Cl)nc3C(N)=O)cc2)CC1 [Example Q-57] |  |  | < 10 | < 10 | < 10 | < 10 | < 10 | 
NC(=O)c1nc(Nc2c(F)cccc2F)oc1-c1ccc(N2CCNCC2)cc1 [Example R-13, 2-(2,6-difluorophenylamino)-5-(4-(piperazin-1-yl)phenyl)oxazole-4-carboxamide] |  |  | < 10 | < 10 | < 10 | < 10 | < 10 | 
Cc1cc(Nc2cc(N3CCN(C)CC3)nc(Sc3ccc(NC(=O)C4CC4)cc3)n2)n[nH]1 [VX-680] |  |  |  |  |  |  |  | potently killed
